Columns and labels:
hA2a [1] = target: T1, hA2a (Homo sapiens (Human), UniProt P29274); experiment: cAMP inhibition assay in hA2a/CHO cells; format: cell-based; settings: adenosine stimulation, read-out: cAMP & FLIPR IC50 (nM) hA2a
Method in brief: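 CHO cells expressing human A2a, human A2b or mouse A2a, 5×10^3 cells/well, pre-incubated with compound 30 min at 37 °C, then stimulated with […] adenosine 30 min at 37 °C. cAMP read after 60 min room-temperature incubation with detection reagent.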

hA2b = hA2b (Homo sapiens (Human), UniProt P29275); experiment: cAMP inhibition assay in hA2b/CHO cells; format: cell-based; settings: adenosine stimulation, read-out: cAMP & FLIPR IC50 (nM) hA2b
Method: (§1) hA2a/CHO, hA2b/CHO and mA2a/CHO (Genscript) were plated at 5×10^3 cells/well into 384-well polystyrene plates at the day of experiment. Compounds were pre-incubated with cells for 30 min at 37° C., 5% CO2. Then […] adenosine was added to the cells and incubated for 30 min at 37° C., 5% CO2. Detection reagent (CISBIO) was added and the plates were incubated for 60 min at room temperature. The signal was captured by Envision.

hA2a [2] = target: T1, hA2a; experiment: Radioligand binding to hA2a membrane ([3H]-CGS21680); settings: [3H]-CGS21680, 90 min at 25° C., read-out: Binding Affinity (IC50 nM) hA2a
Method: (§2) Binding affinity and specificities of the compounds against different subtype of human adenosine receptors (hA1, hA2A, hA2B and hA3) were characterized with cell membrane chromatography binding analysis.
(§3) The compounds at different concentrations were incubate with hA2a membrane (from PerkinElmer) and [^3H]-CGS21680 for 90 min at 25° C., meanwhile 100 μL 0.5% PEI solution was added into […]-96 GF/B filter plate for 60 min at 4° C., then […]-96 GF/B filter plate was washed twice with 50 ml wash buffer, the membrane mix was transferred into […]-96 GF/B filter plate, and the filter plate was washed 4 times before incubated at 55° C. for 10 min. At last, […] ULTIMA GOLD was added into each well, and CPM was read by TopCount.
(§4) The empty boxes in the tables below indicate data not available.

hA1 [3] = target: T2, hA1 (Homo sapiens (Human), UniProt P30542); experiment: FLIPR inhibition assay in hADORA1/CHO (hA1 expressing) cells; format: cell-based; settings: hADORA1/CHO cells, FLIPR calcium, adenosine stimulation; read-out: cAMP & FLIPR IC50 (nM) hA1
Method in brief: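 CHO cells expressing human A1 were plated at 1×10^4 cells/well the day before, then loaded with FLIPR Calcium 5 dye for 60 min at 37 °C, 5% CO2. Compounds were added at several concentrations for 400 s before stimulation with […] adenosine. The calcium signal was recorded by FLIPR.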

mA2a = mA2a (Mus musculus (Mouse), UniProt Q60613); experiment: cAMP inhibition assay in mA2a/CHO cells; format: cell-based; settings: adenosine stimulation, read-out: cAMP & FLIPR IC50 (nM) mA2a
Method: as §1

hA1 [4] = target: T2, hA1; experiment: Radioligand binding to hA1 membrane ([3H]-DPCPX); settings: 50 min at 25° C., read-out: Binding Affinity (IC50 nM) hA1
Method: as §2
as §3, with “hA1” for “hA2a”, “[^3H]-8-Cyclopentyl-1,3-dipropylxanthine (DPCPX)” for “[^3H]-CGS21680”, “50” for “90”
as §4

T2 sequence (P30542 whole entry): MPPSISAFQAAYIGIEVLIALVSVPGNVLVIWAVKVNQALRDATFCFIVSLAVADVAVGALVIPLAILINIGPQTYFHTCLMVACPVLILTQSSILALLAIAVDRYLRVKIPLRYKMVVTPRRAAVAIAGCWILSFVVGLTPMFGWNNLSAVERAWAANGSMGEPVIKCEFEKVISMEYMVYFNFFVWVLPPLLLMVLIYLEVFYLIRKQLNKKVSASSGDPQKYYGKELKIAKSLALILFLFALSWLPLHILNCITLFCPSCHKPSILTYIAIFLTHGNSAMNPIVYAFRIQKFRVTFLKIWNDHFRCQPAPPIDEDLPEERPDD
hA2b, sequence (P29275 whole entry): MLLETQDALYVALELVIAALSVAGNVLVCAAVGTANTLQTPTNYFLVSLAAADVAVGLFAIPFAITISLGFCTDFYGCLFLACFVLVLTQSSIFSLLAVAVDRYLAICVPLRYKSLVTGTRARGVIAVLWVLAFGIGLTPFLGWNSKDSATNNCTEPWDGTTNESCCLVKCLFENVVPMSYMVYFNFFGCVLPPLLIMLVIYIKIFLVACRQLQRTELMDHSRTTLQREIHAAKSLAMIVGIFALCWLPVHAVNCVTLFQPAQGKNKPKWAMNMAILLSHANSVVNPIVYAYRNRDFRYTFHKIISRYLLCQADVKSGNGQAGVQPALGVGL
T1 sequence (P29274 whole entry): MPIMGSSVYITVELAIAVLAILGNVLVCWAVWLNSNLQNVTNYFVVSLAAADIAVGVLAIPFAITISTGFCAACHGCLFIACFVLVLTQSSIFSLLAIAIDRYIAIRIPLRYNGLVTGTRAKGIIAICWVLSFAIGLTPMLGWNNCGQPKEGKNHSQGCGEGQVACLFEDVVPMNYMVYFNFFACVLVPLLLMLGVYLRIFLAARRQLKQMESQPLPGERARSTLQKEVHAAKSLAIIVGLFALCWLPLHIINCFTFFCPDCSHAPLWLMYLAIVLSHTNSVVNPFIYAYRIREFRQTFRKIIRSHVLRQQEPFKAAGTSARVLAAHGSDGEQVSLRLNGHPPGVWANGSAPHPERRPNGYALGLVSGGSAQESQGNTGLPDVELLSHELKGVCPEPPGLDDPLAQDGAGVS
mA2a, sequence (Q60613 whole entry): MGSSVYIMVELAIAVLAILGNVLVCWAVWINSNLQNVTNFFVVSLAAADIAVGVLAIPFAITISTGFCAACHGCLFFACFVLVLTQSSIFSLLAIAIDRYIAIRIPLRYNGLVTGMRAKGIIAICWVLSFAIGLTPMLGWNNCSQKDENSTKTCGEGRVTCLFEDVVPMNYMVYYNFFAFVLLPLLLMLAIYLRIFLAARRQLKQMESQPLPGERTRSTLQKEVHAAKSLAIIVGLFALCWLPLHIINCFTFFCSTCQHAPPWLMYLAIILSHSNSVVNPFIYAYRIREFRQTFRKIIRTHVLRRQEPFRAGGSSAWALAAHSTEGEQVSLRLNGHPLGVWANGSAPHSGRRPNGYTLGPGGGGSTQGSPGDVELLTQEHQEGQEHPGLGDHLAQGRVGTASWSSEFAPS

Structure (SMILES)	IC50 (hA2a [1])	IC50 (hA2b)	IC50 (hA2a [2])	IC50 (hA1 [3])	IC50 (mA2a)	IC50 (hA1 [4])
Cn1cc(-c2c(-c3ncco3)nc(N)n3nc(Cc4c(F)cccc4F)nc23)ccc1=O [Example 22, 5-(5-amino-2-(2,6-difluorobenzyl)-7-(oxazol-2-yl)-[1,2,4]triazolo[1,5-c]pyrimidin-8-yl)-1-methylpyridin-2(1H)-one]	8.2 nM	168 nM	12 nM	25 nM	12 nM	6.8 nM
Cn1cc(-c2c(-n3nccn3)nc(N)n3nc(Cc4c(F)cccc4F)nc23)ccc1=O [Example 25, 5-[5-amino-2-[(2,6-difluorophenyl)methyl]-7-(2H-1,2,3-triazol-2-yl)-[1,2,4]triazolo[1,5-c]pyrimidin-8-yl]-1-methyl-1,2-dihydropyridin-2-one]	20 nM	582 nM	1.4 nM	21 nM	30 nM	7.9 nM
Nc1nc(-c2ncco2)c(-c2ccc3nccn3c2)c2nc(Cc3ncccc3F)nn12 [Example 31, 2-((3-fluoropyridin-2-yl)methyl)-8-(imidazo[1,2-a]pyridin-6-yl)-7-(oxazol-2-yl)-[1,2,4]triazolo[1,5-c]pyrimidin-5-amine]	14 nM	80 nM	3 nM	188 nM	51 nM	137 nM
Nc1nc(-c2ccc(F)cc2)c(-c2ccc3nccn3c2)c2nc(Cc3ncccc3F)nn12 [Example 32, 7-(4-fluorophenyl)-2-((3-fluoropyridin-2-yl)methyl)-8-(imidazo[1,2-a]pyridin-6-yl)-[1,2,4]triazolo [1,5-c]pyrimidin-5-amine]	0.9 nM	19 nM	5.5 nM	28 nM	5.4 nM	3.4 nM
Nc1cccc(Cc2nc3c(-c4ccc5nccn5c4)c(-c4ccc(F)cc4)nc(N)n3n2)n1 [Example 37, 2-((6-aminopyridin-2-yl)methyl)-7-(4-fluorophenyl)-8-(imidazo[1,2-a]pyridin-6-yl)-[1,2,4]triazolo[1,5-c]pyrimidin-5-amine]	1.8 nM	12 nM	6.3 nM	12 nM	7.3 nM	4 nM
Cc1cnc2ccc(-c3c(-c4ccc(F)cc4)nc(N)n4nc(CCN(C)C)nc34)cn12 [Example 120, 2-(2-(dimethylamino)ethyl)-7-(4-fluorophenyl)-8-(3-methylimidazo[l,2-a]pyridin-6-yl)-[l,2,4]tria zolo[1,5-c]pyrimidin-5-amine]	0.6 nM	146 nM	–	66.7 nM	9.5 nM	–
Cc1cnc2ccc(-c3c(-c4ccc(F)cc4)nc(N)n4nc(C[C@@H]5CCCN5C)nc34)cn12 [Example 122, (S)-7-(4-fluorophenyl)-8-(3-methylimidazo[1,2-a]pyridin-6-yl)-2-((l-methylpyrrolidin-2-yl)methyl)-[1,2,4]triazolo[1,5-c]pyrimidin-5-amine]	0.3 nM	93.5 nM	–	67.7 nM	2.6 nM	–
Cc1cnc2ccc(-c3c(N4CCCC4)nc(N)n4nc(Cc5c(F)cccc5F)nc34)cn12 [Example 123, 2-(2,6-difluorobenzyl)-8-(3-methylimidazo[l,2-a]pyridin-6-yl)-7-(pyrrolidin-1-yl)-[1,2,4]triazolo [1,5-c]pyrimidin-5-amine]	0.4 nM	80.5 nM	–	42.4 nM	16.5 nM	–
Cc1cnc2ccc(-c3c(N4CCC4)nc(N)n4nc(Cc5c(F)cccc5F)nc34)cn12 [Example 124, 7-(azetidin-l-yl)-2-(2,6-difluorobenzyl)-8-(3-methylimidazo[1,2-a]pyridin-6-yl)-[1,2,4]triazolo [1,5-c]pyrimidin-5-amine]	0.1 nM	23.3 nM	–	16 nM	3.9 nM	–

Reference: US10858365B2, “Triazolo-pyrimidine compounds and uses thereof” (Dizal (Jiangsu) Pharmaceutical Co., Ltd., priority 2018, dated 2020)
